Consider six molecules from article PMC2748416 (Biochemistry, 2009).

The target in assay [1] is T1, MshC W227F mutant (Mycolicibacterium smegmatis, UniProt A0QZY0, W227F).
In assay [2] the target is T2, MshC D251N mutant (Mycolicibacterium smegmatis, UniProt A0QZY0, D251N).
In assay [3] the target is T3, MshC D251A mutant (Mycolicibacterium smegmatis, UniProt A0QZY0, D251A).
In assay [4] the target is T4, MshC T46V mutant (Mycolicibacterium smegmatis, UniProt A0QZY0, T46V).
The target in assay [5] is MshC T83V mutant (Mycolicibacterium smegmatis, UniProt A0QZY0, T83V). The assay is classed as biochemical, Mycobacterium smegmatis.
For assay [6], the target named is T5, WT MshC (Mycolicibacterium smegmatis, UniProt A0QZY0).
T5 sequence (A0QZY0 1-412): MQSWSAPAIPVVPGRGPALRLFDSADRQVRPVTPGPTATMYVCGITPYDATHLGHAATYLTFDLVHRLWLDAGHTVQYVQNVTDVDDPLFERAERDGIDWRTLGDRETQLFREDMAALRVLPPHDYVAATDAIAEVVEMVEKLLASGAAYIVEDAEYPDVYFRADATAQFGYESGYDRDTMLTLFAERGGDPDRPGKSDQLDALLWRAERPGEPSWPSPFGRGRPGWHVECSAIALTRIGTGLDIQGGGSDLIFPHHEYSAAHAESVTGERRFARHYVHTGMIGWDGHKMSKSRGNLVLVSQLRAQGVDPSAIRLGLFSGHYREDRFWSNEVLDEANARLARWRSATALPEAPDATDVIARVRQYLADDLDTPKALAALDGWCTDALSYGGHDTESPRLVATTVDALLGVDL
Put plainly: Coupled spectrophotometric enzyme assay. It is filed as biochemical, Mycobacterium smegmatis. The note with it: for Km: steady state, pH 7.8, 25 °C.

For assay [7], the target named is T6, MshC W227H mutant (Mycolicibacterium smegmatis, UniProt A0QZY0, W227H).
Assay [8] concerns the target T7, MshC H55A mutant (Mycolicibacterium smegmatis, UniProt A0QZY0, H55A). The note with it: for Km: steady state, pH 7.8, 25 °C.
Assay [9] deals with T5, WT MshC. Put plainly: Pre-steady state kinetics of cysteine adenylation. It is filed as biochemical, Mycobacterium smegmatis.
Assay [10] has as its target T4, MshC T46V mutant. As to the kind of experiment: Pre-steady state kinetics of cysteine adenylation. It is filed as biochemical, Mycobacterium smegmatis.
Assay [11] concerns the target T1, MshC W227F mutant. Put plainly: Pre-steady state kinetics of cysteine adenylation. The assay is classed as biochemical, Mycobacterium smegmatis.
The target in assay [12] is T7, MshC H55A mutant. As to the kind of experiment: Pre-steady state kinetics of cysteine adenylation. It is filed as biochemical, Mycobacterium smegmatis. The note with it: read-out: Kd-ATP; first half reaction, fit to eq 9.
The target of assay [13] is T5, WT MshC. The note with it: up to 10 mM ATP; cited from earlier work.
The target of assay [14] is T2, MshC D251N mutant. Put plainly: Pre-steady state kinetics of cysteine adenylation. The assay is classed as biochemical, Mycobacterium smegmatis. The note with it: read-out: Kd-ATP; first half reaction, fit to eq 9.
The target in assay [15] is T4, MshC T46V mutant. Put plainly: Tryptophan fluorescence titration of inhibitor binding. Set-up: species or system Mycobacterium smegmatis. The note with it: fluorescence method, 0.1 μM protein, pH 7.8, 25 °C.
For assay [16], the target named is T3, MshC D251A mutant. The description is as above. Set-up: species or system Mycobacterium smegmatis. The settings on record: fluorescence method, 0.1 μM protein, pH 7.8, 25 °C.
For assay [17], the target named is T1, MshC W227F mutant. The description is as above. On the set-up: species or system Mycobacterium smegmatis. The note with it: fluorescence method, 0.1 μM protein, pH 7.8, 25 °C.
In assay [18] the target is T2, MshC D251N mutant. The assay is described as above. Set-up: species or system Mycobacterium smegmatis. The note with it: fluorescence method, 0.1 μM protein, pH 7.8, 25 °C.
In assay [19] the target is T5, WT MshC. The description is as above. Set-up: species or system Mycobacterium smegmatis. The settings on record: fluorescence method, 0.1 μM protein, pH 7.8, 25 °C.
For assay [20], the target named is T7, MshC H55A mutant. The assay is described as above. Set-up: species or system Mycobacterium smegmatis. The note with it: fluorescence method, 0.1 μM protein, pH 7.8, 25 °C.
In assay [21] the target is T6, MshC W227H mutant. Described as above. Set-up: species or system Mycobacterium smegmatis. The note with it: fluorescence method, 0.1 μM protein, pH 7.8, 25 °C.
Assay [22] concerns the target MshC H55A (Mycolicibacterium smegmatis, UniProt A0QZY0, H55A). As to the kind of experiment: Chemical rescue of enzyme activity by exogenous imidazole. It is filed as biochemical, Mycobacterium smegmatis.
Assay [23] concerns the target T5, WT MshC. Put plainly: Effect of added imidazole on enzyme activity. It is filed as biochemical, Mycobacterium smegmatis.
Where [24] appears, read: read-out: Km-GlcN-Ins, at fixed saturating concentrations of ATP and cysteine.
The mark [25] stands for this setting: read-out: Km-cys, steady state, pH 7.8, 25 °C.
Where [26] appears, read: read-out: Km-ATP, steady state, pH 7.8, 25 °C.

Read-outs that look alike come from different tables or passages of the source.

On to `N[C@H]1[C@@H](OC2[C@H](O)[C@H](O)C(O)[C@H](O)[C@H]2O)O[C@H](CO)[C@@H](O)[C@@H]1O` (stereo partly shown) [GlcN-Ins, glucosamine-inositol], for which the Km in assay [1] (setting [24]) was 150 ± 60 µM; in [2] (setting [24]) it was 100 ± 60 µM; in assay [3] (setting [24]), 160 ± 10 µM; in [4] (setting [24]), 150 ± 80 µM; in assay [5] (setting [24]), 170 ± 50 µM; in [6] (read-out: Km-GlcN-Ins), 160 ± 50 µM. In [7] (setting [24]), the Km is 600 ± 10 µM.
Regarding `N[C@@H](CS)C(=O)O` [cys, L-cysteine], the Km in assay [8] (read-out: Km-cys) was determined as 1100 ± 200 µM; in assay [1] (setting [25]) it was 400 ± 100 µM; in assay [2] (setting [25]) it was 480 ± 150 µM; in assay [3] (setting [25]), 170 ± 20 µM; in [4] (setting [25]), 1900 ± 200 µM; in assay [5] (setting [25]), 20 ± 1 µM. Moreover, the Km in [7] (setting [25]) came out at 120 ± 40 µM. The Kd came out at 160 ± 30 µM in [9], 800 ± 100 µM in [10] and 600 ± 100 µM in assay [11].
As for `Nc1ncnc2c1ncn2[C@@H]1O[C@H](COP(=O)(O)OP(=O)(O)OP(=O)(O)O)[C@@H](O)[C@H]1O` [ATP], the Km in [8] (read-out: Km-ATP) stood at 5200 ± 100 µM; in assay [1] (setting [26]), 200 ± 50 µM; in [2] (setting [26]), 8900 ± 1600 µM; in assay [3] (setting [26]), 360 ± 11 µM; in [4] (setting [26]), 1100 ± 30 µM; in [5] (setting [26]) it was 320 ± 60 µM. In addition, the Km in [6] (read-out: Km-ATP) stood at 1800 ± 100 µM; in assay [7] (setting [26]), 120 ± 10 µM. Besides, the Kd in assay [9] (read-out: Kd-ATP, first half reaction, fit to eq 9) was determined as 1700 ± 200 µM; in assay [12], 15000 ± 3000 µM; in assay [14] it was 10200 ± 2800 µM. The figures for the substrate inhibition entry in [2] (up to 20 mM ATP) and in assay [13] were “not observed” and “no substrate inhibition”, respectively. The “ATP concentration above which enzyme activity decreases” value in assay [3] (2 mM cysteine, 200 μM GlcN-Ins) is given as ~ 1.1 mM.
Regarding `N[C@@H](CO)C(=O)O` [serine], in assay [6] (tested up to 5 mM), the activity as substrate result is “no activity”.
As to `Nc1ncnc2c1ncn2[C@@H]1O[C@H](COS(=O)(=O)NC(=O)[C@@H](N)CS)[C@@H](O)[C@H]1O` [CSA, 5'-O-[N-(L-cysteinyl)-sulfamonyl]adenosine, reference compound], the Kd in assay [15] came out at 0.15 ± 0.01 µM; in assay [16], 0.34 ± 0.01 µM; in [17], 0.053 ± 0.01 µM; in [18], 0.18 ± 0.013 µM; in assay [19], 0.11 ± 0.01 µM; in assay [20], 0.35 ± 0.02 µM. Also, the affinity in assay [21], expressed as Kd, was 0.045 ± 0.002 µM. Also, the Ki came to 0.89 ± 0.06 µM in assay [8]; 0.056 ± 0.008 µM in assay [1]; 0.52 ± 0.11 µM in [2]; 0.93 ± 0.17 µM in assay [3]; 0.36 ± 0.047 µM in assay [4]; 0.304 ± 0.04 µM in [6]. Moreover, the affinity in assay [7] corresponds to a Ki of 0.03 ± 0.005 µM.
In the case of `c1c[nH]cn1` [imidazole], in assay [22] (100 mM added imidazole, pH 6.75), the “increase of kcat value” is “seven-fold increase”. For the same molecule, the “change in enzyme activity upon addition of imidazole” value in assay [22] (pH 7.8 and pH 9) is on record as “no changes”. Further, the “effect of added imidazole on enzyme activity” value in assay [23] is reported as “No significant activating or inhibitory effect”.
